# Laboratory results: paper PMC8607748 (Inorganic chemistry, 2020)
# Tested on: HL-60 cell line
# Format: cell-based
# Conditions: free ligand
smiles,measurement,value
c1ccncc1 [pyridine],activity of the ejected monodentate ligand (cell killing),inactive
c1cnccn1 [pyrazine],activity of the ejected monodentate ligand (cell killing),inactive
